{"source": "paper PMC8512764", "about": "“New 4-Aminoproline-Based Small Molecule Cyclopeptidomimetics as Potential Modulators of α4β1 Integrin” (Molecules, 2021)", "key": {"[1]": {"parameters": "method as in PMID 31338363, PMID 26101577", "conditions": "cited from earlier work"}, "α4β7 integrin": {"system": "α4β7 integrin", "parameters": "method as in PMID 10072689", "conditions": "cited from earlier work"}, "[2]": {"system": "allergic bronchoconstriction", "parameters": "method as in PMID 10072689", "conditions": "administered as an aerosol; cited from earlier work"}, "α4β1/VCAM-1 interaction": {"system": "α4β1/VCAM-1 interaction", "parameters": "method as in PMID 10072689", "conditions": "Jurkat cell adhesion assay; read-out: IC50, inhibition of α4β1/VCAM-1 interaction; cited from earlier work"}, "Jurkat cells": {"system": "Jurkat cells", "assay": "Jurkat cell adhesion to wells coated with compound 16 (absence of VCAM-1)", "assay_type": "cell-based", "experimental": "In a second set of experiments, the ability of compound 16 to increase cell adhesion was tested in the absence of VCAM-1. Wells were coated by passive adsorption with compound 16 or BSA (both at 10 µg/mL) as a negative control and Jurkat cell adhesion was measured (Figure 8b).\n(§1) The number of adherent cells was determined as described above."}, "α4β1 integrin [3]": {"biological_target": "T1, α4β1 integrin (Homo sapiens, UniProt P05556+P13612)", "T1 construct": "Jurkat cells endogenously express α4β1 integrin; host or cells: Jurkat E6.1 cells", "T1 sequence (P13612 34-1032)": "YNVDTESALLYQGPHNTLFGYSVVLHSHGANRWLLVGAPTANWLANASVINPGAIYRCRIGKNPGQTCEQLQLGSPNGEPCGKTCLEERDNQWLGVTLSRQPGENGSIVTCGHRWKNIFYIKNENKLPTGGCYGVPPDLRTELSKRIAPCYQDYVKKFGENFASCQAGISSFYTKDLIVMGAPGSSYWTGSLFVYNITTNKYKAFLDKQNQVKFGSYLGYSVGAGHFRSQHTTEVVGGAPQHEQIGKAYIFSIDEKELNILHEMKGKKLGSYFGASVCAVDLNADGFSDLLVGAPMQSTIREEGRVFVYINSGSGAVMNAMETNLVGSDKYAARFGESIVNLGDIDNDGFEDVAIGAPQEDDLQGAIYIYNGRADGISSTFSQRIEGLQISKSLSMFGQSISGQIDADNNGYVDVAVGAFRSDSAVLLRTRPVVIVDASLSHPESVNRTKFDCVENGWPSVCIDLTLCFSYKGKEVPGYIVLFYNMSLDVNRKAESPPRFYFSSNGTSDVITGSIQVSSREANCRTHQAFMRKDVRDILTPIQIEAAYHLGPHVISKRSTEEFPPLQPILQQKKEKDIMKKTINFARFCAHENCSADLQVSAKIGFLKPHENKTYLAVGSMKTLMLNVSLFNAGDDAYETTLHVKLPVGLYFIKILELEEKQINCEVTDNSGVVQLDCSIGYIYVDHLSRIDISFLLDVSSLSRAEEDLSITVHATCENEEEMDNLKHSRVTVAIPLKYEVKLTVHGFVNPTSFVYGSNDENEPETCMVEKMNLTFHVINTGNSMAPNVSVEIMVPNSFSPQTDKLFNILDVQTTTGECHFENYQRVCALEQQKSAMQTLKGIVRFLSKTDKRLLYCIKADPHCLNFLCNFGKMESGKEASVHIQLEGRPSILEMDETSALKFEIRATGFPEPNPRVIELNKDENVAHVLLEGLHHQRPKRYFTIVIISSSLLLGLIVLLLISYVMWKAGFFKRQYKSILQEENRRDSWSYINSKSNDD", "T1 sequence (P05556 21-798)": "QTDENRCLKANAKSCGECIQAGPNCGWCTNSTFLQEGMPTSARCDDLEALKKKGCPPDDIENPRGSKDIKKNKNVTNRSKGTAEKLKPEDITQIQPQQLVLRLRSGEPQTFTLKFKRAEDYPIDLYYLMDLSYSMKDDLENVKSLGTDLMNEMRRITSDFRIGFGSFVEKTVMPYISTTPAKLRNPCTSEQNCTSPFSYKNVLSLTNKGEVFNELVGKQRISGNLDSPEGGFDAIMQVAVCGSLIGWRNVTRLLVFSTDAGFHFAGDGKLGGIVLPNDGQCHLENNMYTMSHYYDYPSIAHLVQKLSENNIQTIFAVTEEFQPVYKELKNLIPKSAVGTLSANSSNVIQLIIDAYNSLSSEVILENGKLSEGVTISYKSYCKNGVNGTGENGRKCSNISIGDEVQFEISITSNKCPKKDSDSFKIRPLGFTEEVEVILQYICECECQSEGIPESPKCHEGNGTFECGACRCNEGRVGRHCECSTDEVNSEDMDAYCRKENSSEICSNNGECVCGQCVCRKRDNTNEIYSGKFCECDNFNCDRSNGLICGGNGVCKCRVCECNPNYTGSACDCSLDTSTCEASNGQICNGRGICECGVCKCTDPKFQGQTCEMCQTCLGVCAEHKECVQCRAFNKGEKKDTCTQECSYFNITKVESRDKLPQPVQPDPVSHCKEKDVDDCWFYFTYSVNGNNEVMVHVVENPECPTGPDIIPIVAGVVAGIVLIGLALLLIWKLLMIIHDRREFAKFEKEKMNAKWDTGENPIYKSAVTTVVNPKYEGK", "conditions": "cited from earlier work"}, "α4β1 integrin [4]": {"biological_target": "T1, α4β1 integrin", "assay": "Jurkat cell adhesion assay on VCAM-1-coated wells", "assay_type": "cell-based", "experimental": "To investigate the ability of the newly synthesized cyclopeptidomimetics 12–18 to recognize and bind α4β1 integrin, cell adhesion assays were performed on VCAM-1. The compounds were evaluated for their ability to interfere with α4β1 integrin-mediated cell adhesion by using Jurkat cells, which are known to constitutively express this integrin [46, 48, 49, 50, 51].\nJurkat E6.1 cells were purchased from American Type Culture Collection (ATCC, Rockville, MD, USA) and were routinely cultured in RPMI-1640 (LifeTechnologies, Milan, Italy) supplemented with 10% FBS (fetal bovine serum, Life Technologies) and 2 mM glutamine. Cells were kept at 37 °C under 5% CO2 humidified atmosphere. Jurkat cells are a widely used cell model to study potential agonist or antagonist ligands able to modulate integrin-mediated cell adhesion. Jurkat cells endogenously express α4β1 integrin [13].\nThe assays were performed as previously described. In brief, black 96 well plates were coated with VCAM-1 (2 μg/mL) overnight at 4 °C; then, non-specific hydrophobic binding sites were blocked with 1% BSA (bovine serum albumin, Sigma-Aldrich) in HBSS (Life Technologies) for 30 min at 37 °C. Jurkat cells were labelled with CellTracker green CMFDA (12.5 μM, Life Technolgies) and pre-incubated with various concentration (10^−4–10^−10 M) of each new cyclopeptidomimetic or with the vehicle (DMSO) for 30 min at 37 °C. Afterwards, Jurkat cells were plated on VCAM-1-coated wells and incubated for 30 min at 37 °C. Then, wells were washed three times with 1% BSA in HBSS and Jurkat cells were lysed with 0.5% Triton X-100 in PBS for 30 min at 4 °C. Green fluorescence (Ex485 nm/Em 535 nm) was measured in an EnSpire Multimode Plate Reader (PerkinElmer, Waltham, MA, USA). Experiments were performed in quadruplicate and repeated at least three times. The number of adherent cells was determined by comparison with a standard curve made with a known concentration of labelled Jurkat cells. Data analysis and IC50/EC50 values were calculated using GraphPad Prism 6.0 (GraphPad Software, San Diego, CA, USA).\nas §1"}, "α4 integrin": {"system": "α4 integrin", "parameters": "method as in PMID 30051467", "conditions": "cited from earlier work"}, "human α4β1 integrin": {"system": "human α4β1 integrin", "parameters": "method as in PMID 30051467", "conditions": "cited from earlier work"}, "allergic conjunctivitis": {"system": "allergic conjunctivitis", "parameters": "method as in PMID 30051467", "conditions": "cited from earlier work"}, "[5]": {"assay": "head-to-tail lactamisation (amide bond) of side-chain-protected linear peptides; HATU (3 equiv)/HOAt (3 equiv)/2,4,6-collidine (3 equiv); linear peptide + collidine added dropwise to HATU/HOAt, 5 h, argon", "conditions": "the molecule shown is the open-chain precursor, DCM/DMF 15:1, 25.0 °C"}, "[6]": {"conditions": "from H-Val-Gly-Amp(MPUPA)-Leu-Glu(tBu)-OH; amide bond; 17-membered ring; HATU/HOAt/collidine; DCM/DMF 15:1; 0.48 mM; 25.0 °C"}, "α4β1–positive cells": {"system": "α4β1–positive cells", "parameters": "method as in PMID 16767086", "conditions": "cited from earlier work"}, "α4β1 receptor": {"biological_target": "α4β1 receptor", "parameters": "method as in PMID 16767086", "conditions": "Jurkat cell assay; read-out: IC50, affinity toward α4β1 receptor; cited from earlier work"}, "[7]": {"system": "endothelial progenitor cells", "parameters": "method as in PMID 23703610", "conditions": "α4β1-dependent; cited from earlier work"}}, "note": "“Also recorded” adds a separate entry of the source. Read-outs that look alike come from different tables or passages of the source. *1 amine or outer side, *2 acyl side, *3 side chain or, on linkers, in order; H or OH if unused. Where a SMILES comes first, the peptide text is derived from it. Bridges are numbered along the chain shown (N, C = ends). [ ]: non-standard residue; d: D form. The star is where a group is joined. ξ: configuration not given here. ξPro(4ξ-NH2) = O=C(C1CC(N[*:3])CN1[*:1])[*:2]; X1 = O=C(Cc1ccc(N[*:1])cc1)[*:2]; NH(2-Me-phenyl) = Cc1ccccc1N*; CO = O=C([*:1])[*:2]", "data": [{"smiles": "Cc1ccccc1NC(=O)Nc1ccc(CC(=O)N[C@@H](CC(C)C)C(=O)N[C@@H](CC(=O)O)C(=O)N[C@H](C(=O)N2CCC[C@H]2C(=O)O)C(C)C)cc1", "note": "[BIO1211, MPUPA-Leu-Asp-Val-Pro] ({NH(2-Me-phenyl)-CO}-[X1]LDVP-OH)", "values": [{"measurement": "Enzymatic stability", "setting": "[1]", "value": "a certain enzymatic instability"}, {"measurement": "IC50", "setting": "α4β7 integrin", "value": 2000, "unit": "nM"}, {"measurement": "Efficacy in sheep model of allergic bronchoconstriction", "setting": "[2]", "value": "prophylactic efficacy"}, {"measurement": "IC50", "setting": "α4β1/VCAM-1 interaction", "value": 4, "unit": "nM"}, {"measurement": "Effect of BIO1211 on cell adhesion induced by coated compound 16", "setting": "Jurkat cells; BIO1211 10 nM–100 mM, wells coated with compound 16 10 μg/mL", "value": "not able to reduce the increment of cell adhesion induced by compound 16"}]}, {"smiles": "Cc1ccccc1NC(=O)Nc1ccc(CNC(=O)C2=CCN(C(=O)CC(=O)O)[C@@H]2C(C)C)cc1", "note": "[Compound 11a]", "values": [{"measurement": "Enzymatic stability", "setting": "[1]", "value": "superior enzymatic stability respect to cyclic peptides 8–10"}, {"measurement": "IC50, inhibition of α4β1/VCAM interaction", "setting": "α4β1 integrin [3]", "value": "in the nanomolar range"}]}, {"smiles": "Cc1ccccc1NC(=O)Nc1ccc(CNC(=O)C2=CCN(C(=O)CC(=O)O)[C@H]2C(C)C)cc1", "note": "[Compound 11b]", "values": [{"measurement": "Inhibitory potency towards α4β1 integrin", "setting": "α4β1 integrin [3]", "value": "considerably less active"}]}, {"smiles": "Cc1ccccc1NC(=O)Nc1ccc(CC(=O)N2CC3CC2C(=O)NC(C(C)C)C(=O)NC(CC(=O)O)C(=O)NC(CC(C)C)C(=O)N3)cc1", "note": "(stereo not drawn) [Compound 16, c[(MPUPA)Amp-Val-Asp-Leu]] ({NH(2-Me-phenyl)-CO}-[X1][ξPro(4ξ-NH2)]VDL; lactam 2-C; configuration not given here)", "values": [{"measurement": "Behaviour in α4β1 integrin-mediated cell adhesion (agonist/antagonist)", "setting": "α4β1 integrin [4]; Jurkat cell adhesion to VCAM-1 (2 μg/mL)", "value": "agonist"}, {"measurement": "EC50", "setting": "α4β1 integrin [4]; Jurkat cell adhesion to VCAM-1 (2 μg/mL), means ± SD, n = 3, read-out: EC50/IC50 (EC50 for compounds enhancing cell adhesion)", "value": "370 ± 90", "unit": "nM"}, {"measurement": "Effect of compound 16 on the reduced cell adhesion induced by BIO1211", "setting": "α4β1 integrin [4]; cells pre-incubated with BIO1211 (1 μM) 30 min, then compound 16 (100 μM)", "value": "not able to modify the reduction in adhesion induced by BIO1211; also recorded: not able to modify the reduced cell adhesion induced by BIO1211"}, {"measurement": "Effect on Jurkat cell adhesion to VCAM-1", "setting": "α4β1 integrin [4]; compound 16 100 μM", "value": "increasing the adhesion of Jurkat cells to VCAM-1"}, {"measurement": "Jurkat cell adhesion to compound-coated wells", "setting": "Jurkat cells; wells coated with 10 μg/mL, absence of VCAM-1, vs BSA-coated wells", "value": "able to induce Jurkat cell adhesion; also recorded: significant adhesion of Jurkat cells"}]}, {"smiles": "Cc1ccccc1NC(=O)Nc1ccc(CC(=O)N2CC[C@H](C(=O)NCC(=O)O)C2)cc1", "note": "[DS-70]", "values": [{"measurement": "Antagonist activity of α4–mediated cell adhesion", "setting": "α4 integrin", "value": "potent antagonist activity"}, {"measurement": "Binding affinity for human α4β1 integrin", "setting": "human α4β1 integrin", "value": "high binding affinity"}, {"measurement": "Outcome in guinea pig model of allergic conjunctivitis", "setting": "allergic conjunctivitis", "value": "successfully tested"}]}, {"smiles": "Cc1ccccc1NC(=O)Nc1ccc(CC(=O)N2C[C@@H](NC(=O)[C@@H](N)CC(=O)OC(C)(C)C)C[C@H]2C(=O)N[C@@H](CCCNC(=N)NS(=O)(=O)c2c(C)c(C)c3c(c2C)CCC(C)(C)O3)C(=O)NCC(=O)O)cc1", "note": "[H-Asp(tBu)-Amp(MPUPA)-Arg(Pmc)-Gly-OH]", "values": [{"measurement": "ring closure, isolated yield", "setting": "[5]; 14-membered ring", "value": 43, "unit": "%"}]}, {"smiles": "Cc1ccccc1NC(=O)Nc1ccc(CC(=O)N2C[C@@H](NC(=O)[C@@H](N)CC(C)C)C[C@H]2C(=O)N[C@H](C(=O)N[C@@H](CC(=O)OC(C)(C)C)C(=O)O)C(C)C)cc1", "note": "[H-Leu-Amp(MPUPA)-Val-Asp(tBu)-OH]", "values": [{"measurement": "ring closure, isolated yield", "setting": "[5]; 14-membered ring", "value": 73, "unit": "%"}]}, {"smiles": "Cc1ccccc1NC(=O)Nc1ccc(CC(=O)N2C[C@@H](NC(=O)[C@@H](N)CC(C)C)C[C@H]2C(=O)N[C@H](C(=O)N[C@@H](CCC(=O)OC(C)(C)C)C(=O)O)C(C)C)cc1", "note": "[H-Leu-Amp(MPUPA)-Val-Glu(tBu)-OH]", "values": [{"measurement": "ring closure, isolated yield", "setting": "[5]; 14-membered ring", "value": 73, "unit": "%"}]}, {"smiles": "Cc1ccccc1NC(=O)Nc1ccc(CC(=O)N2C[C@@H](NC(=O)[C@@H](N)C(C)C)C[C@H]2C(=O)N[C@@H](CC(C)C)C(=O)N[C@@H](CC(=O)OC(C)(C)C)C(=O)O)cc1", "note": "[H-Val-Amp(MPUPA)-Leu-Asp(tBu)-OH]", "values": [{"measurement": "ring closure, isolated yield", "setting": "[5]; 14-membered ring", "value": 69, "unit": "%"}]}, {"smiles": "Cc1ccccc1NC(=O)Nc1ccc(CC(=O)N2C[C@@H](NC(=O)[C@@H](N)C(C)C)C[C@H]2C(=O)N[C@@H](CC(C)C)C(=O)N[C@@H](CCC(=O)OC(C)(C)C)C(=O)O)cc1", "note": "[H-Val-Amp(MPUPA)-Leu-Glu(tBu)-OH]", "values": [{"measurement": "ring closure, isolated yield", "setting": "[5]; 14-membered ring", "value": 65, "unit": "%"}]}, {"smiles": "Cc1ccccc1NC(=O)Nc1ccc(CC(=O)N2C[C@@H](NC(=O)CNC(=O)[C@@H](N)C(C)C)C[C@H]2C(=O)N[C@@H](CC(C)C)C(=O)N[C@@H](CC(=O)OC(C)(C)C)C(=O)O)cc1", "note": "[H-Val-Gly-Amp(MPUPA)-Leu-Asp(tBu)-OH]", "values": [{"measurement": "ring closure, isolated yield", "setting": "[5]; 17-membered ring", "value": 88, "unit": "%"}]}, {"smiles": "Cc1ccccc1NC(=O)Nc1ccc(CC(=O)N2C[C@@H](NC(=O)CNC(=O)[C@@H](N)C(C)C)C[C@H]2C(=O)N[C@@H](CC(C)C)C(=O)N[C@@H](CCC(=O)OC(C)(C)C)C(=O)O)cc1", "note": "[H-Val-Gly-Amp(MPUPA)-Leu-Glu(tBu)-OH]", "values": [{"measurement": "ring closure, isolated yield", "setting": "[5]; 17-membered ring", "value": 78, "unit": "%"}]}, {"smiles": "Cc1ccccc1NC(=O)Nc1ccc(CC(=O)N2C[C@@H]3C[C@H]2C(=O)N[C@@H](CC(C)C)C(=O)N[C@@H](CCC(=O)OC(C)(C)C)C(=O)N[C@@H](C(C)C)C(=O)NCC(=O)N3)cc1", "note": "[H-Val-Gly-Amp(MPUPA)-Leu-Glu(tBu)-OH]", "values": [{"measurement": "ring closure, isolated yield", "setting": "[6]", "value": 78, "unit": "%"}]}, {"smiles": "Cc1ccccc1NC(=O)Nc1ccc(CC(=O)N[C@@H](CCCCNC(=O)/C=C/c2cccnc2)C(=O)N[C@@H](CCCC(=O)O)C(=O)NC2(C(N)=O)CCCCC2)cc1", "note": "[LLP2A]", "values": [{"measurement": "Effect on cell proliferation and survival of α4β1–positive cells", "setting": "α4β1–positive cells", "value": "without any effect"}, {"measurement": "IC50", "setting": "α4β1 receptor", "value": 0.002, "unit": "nM"}]}, {"smiles": "CCCC[C@@H](COC(=O)N(Cc1cccs1)Cc1cccs1)NC(=O)N[C@@H](CC(=O)OC)c1ccc2c(c1)OCO2", "note": "[THI0019]", "values": [{"measurement": "Effect on endothelial progenitor cells in vitro", "setting": "[7]", "value": "enhanced the rolling, spreading, adhesion, and migration"}]}]}
